Reference: ChEMBL document CHEMBL3988442, “University of Dundee, Small-Polar-MMV Screening Library” (2021)

Columns and labels:
[1] = In vitro enzyme assay to detect hydrolysis of chlorophenol red-beta-D-[…] directly proportional to the number of Toxoplasma stably expressing beta-galactosidase; format: functional, organism-based, Toxoplasma gondii; conditions: Toxoplasma gondii
[2] = microbe, parasite or virus in culture; conditions: Mycobacterium tuberculosis, 96 h, read-out: pIC50 (converted)
[3] = microbe, parasite or virus in culture; conditions: Mycobacterium tuberculosis, 72 h, read-out: pIC50 (converted)

SMILES	IC50 [1] [µM]	IC50 [2] [µM]	IC50 [3] [µM]
Nc1c[nH]nc1-c1ccccn1	> 50.1	–	–
CC(=O)Nc1ccc(S(=O)(=O)N2CCC(N)CC2)cc1	> 50.1	–	–
Cc1cc(C)c(C#N)c(N2C[C@H](C3CC3)[C@@H](N)C2)n1	> 50.1	> 501	247
CNC(=O)CCN1CC(Oc2ccc(C)cc2)C1	> 50.1	–	–
CSCc1ccc(C(=O)N(C)Cc2cnccn2)o1	> 50.1	–	–
CCc1nc(C(C)(C)N)[nH]c(=O)c1C	> 50.1	–	–
N[C@@H]1CC[C@H](C(=O)NCc2csc(N3CCCC3)n2)C1	> 50.1	–	–
OC[C@@H]1CCCN1Cc1ccc(F)c2cccnc12	3.76	–	–
CC(CN)C(=O)Nc1cn[nH]c1 (stereo not given)	> 50.1	–	–
Cc1cc(=O)cc(C(=O)NCCC(C)n2ccnc2)o1 (stereo not given)	> 50.1	–	–
O=C(N[C@H]1COC[C@@H]1N1CCCCC1)c1cnc[nH]1	> 50.1	–	–
CN(C)c1cc(CNC(=O)c2nccnc2N)ccn1	> 50.1	–	–
CS(=O)(=O)CCN1CCC(C(N)=O)CC1	> 50.1	–	–
NCc1ccnc(N2CCCC2)n1	> 50.1	–	–
CCc1ccccc1NC(=O)C1=NN(C)C(=O)CC1	> 50.1	–	–
CC1(C)CC(n2cccn2)C(C)(C)O1 (stereo not given)	> 50.1	–	–
C[C@@H]1CN(C(=O)c2cc(F)cc(C#N)c2)C[C@]1(C)O	> 50.1	–	–
CC(C)(CO)NCC(O)c1cccc(F)c1 (stereo not given)	> 50.1	–	–
NC1CCN(CC(F)F)CC1	> 50.1	–	–
CSCC(=O)NC(C1CCNCC1)[C@H]1C[C@@H](O)C1 (stereo not given in full)	> 50.1	–	–
N#CCCNC(=O)CN1CCCC1	> 50.1	–	–
CSC(C)C(=O)N1CCCN(c2cccnn2)CC1 (stereo not given)	> 50.1	–	–

SMILES	IC50 [1] [µM]	IC50 [2] [µM]	IC50 [3] [µM]
CCN1CCN(Cc2nnnn2C2CC2)CC1	> 50.1	–	–
O=C(CN1CCN(C(=O)c2ccco2)CC1)NC1CC1	> 50.1	–	–
COc1ccc(C)cc1CC(=O)N1CCN(C)CC1	> 50.1	–	–
Cc1ccnc(NC(=O)N(C)Cc2ccncc2)c1	> 50.1	–	–
CCCNC(=O)NCCc1noc(-c2cccnc2)n1	> 50.1	–	–
CCNS(=O)(=O)c1csc(C(=O)Nc2cc(C)on2)c1	> 50.1	–	–
CSc1ccccc1NCC(=O)NC1CC1	> 50.1	–	–
CC(C)(CO)NCC(O)c1cccc(Cl)c1 (stereo not given)	> 50.1	–	–
Cc1ccc(CN2CCC(C3CCNC3)CC2)nc1 (stereo not given)	> 50.1	–	–
Cc1nccn1CCNc1cc(C2CC(O)C2)ncn1 (stereo not given)	> 50.1	–	–
Cc1ccoc1C(=O)Nc1cccc(CO)n1	> 50.1	–	–
CNC(=O)NC(=O)CCN1CCCC(C)C1 (stereo not given)	> 50.1	–	–
COc1ccc(CCNC(=O)NCCCC(N)=O)cc1	> 50.1	–	–
CC1CCC(NCCO)CC1 (stereo not given)	> 50.1	–	–
CC(C)(C)OC(=O)NCC1CC(C(N)=O)=NO1 (stereo not given)	> 50.1	–	–
CCc1cnc(N2CCNCC2)s1	> 50.1	–	–
NC(=O)N1CCCCCC1C1CCNCC1 (stereo not given)	> 50.1	–	–
CCOCC(=O)N1CCCn2ccnc2C1C(C)C (stereo not given)	> 50.1	–	–
CS(=O)(=O)Nc1ccccc1CNC(=O)c1ccoc1	> 50.1	–	–
O=C(NC1CCCSC1)N(CCO)C1CC1 (stereo not given)	> 50.1	–	–
CN1C(=O)c2cccn2CC1CNC(=O)c1ccco1 (stereo not given)	> 50.1	–	–
O=C(NCCc1ncc[nH]1)c1cccnc1SC(F)F	> 50.1	–	–

SMILES	IC50 [1] [µM]	IC50 [2] [µM]	IC50 [3] [µM]
CCC(=O)c1nccn1C	> 50.1	–	–
CCCNS(=O)(=O)c1nc2nc(C)cc(C)n2n1	> 50.1	–	–
CCC(CC)(CC)SCC(=O)N1CCNC(=O)C1	> 50.1	–	–
CCNC(=O)CN1CCCC(c2nccn2CC)C1 (stereo not given)	> 50.1	–	–
O=C(NCc1ccc2c(c1)OCO2)n1ccnc1	> 50.1	–	–
COc1ncccc1-c1csc(NCCSC)n1	> 50.1	284	101
Cc1cc2cc(C(=O)N3CC[C@@H](N)[C@H](O)C3)ccc2o1	> 50.1	–	–
O=C(CN1CCC=C(F)C1)Nc1cccc(F)c1	> 50.1	278	300
OC1(CNCCOCc2ccc(Cl)cc2)CCCNC1 (stereo not given)	> 50.1	–	–
CN(C)[C@@H]1CN(C(=O)c2ccccc2Br)C[C@H]1CO	> 50.1	–	–
CCN1CCCC1CNCC(=O)N(C)C (stereo not given)	> 50.1	–	–
Cc1cc(C(=O)NCCc2noc(C3CC3)n2)nn1C	> 50.1	–	–
COc1cc(Br)c(CN)cc1OC	> 50.1	–	–
CCN1C[C@H](NC(=O)c2snnc2C(C)C)[C@@H](OC)C1	> 50.1	–	–
CCOc1ccc(C(=O)N2CCC(N)CC2)cc1	> 50.1	–	–
COc1ccccc1NC(=O)CC#N	> 50.1	–	–
CS(=O)(=O)NCc1ccc(CN2CCCC2=O)cc1	> 50.1	–	–
Cc1nc2c(c(NCc3ccc(N)nc3)n1)CCCC2	> 50.1	–	–
c1nc(N2CCNCC2)c2sccc2n1	> 50.1	–	–
Cc1cnc(N)c(C)c1	> 50.1	–	–
